Source: BindingDB's records for doi:10.1016/j.bmcl.2010.11.016 (Chosun University, 2011)

What was measured:
[1] = tested on: wild type H1N1 swine influenza virus neuraminidase; test: Inhibition of wild type H1N1 swine influenza virus neuraminidase activity expressed in HEK293T cells after 2 hrs by spectrofluorometry
[2] = tested on: Influenza A H9N2 virus neuraminidase; test: Inhibition of Influenza A H9N2 virus neuraminidase activity after 2 hrs by spectrofluorometry

## O=C(C=Cc1ccc(O)cc1)c1ccc(O)cc1O
[1]
  IC50: 13.6 µM
[2]
  IC50: 37.8 µM
